This is an account of results in ChEMBL document CHEMBL1147765, “Discovery of N-(2-hydroxy-2-aryl-cyclohexyl) substituted spiropiperidines as GlyT1 antagonists with improved pharmacological profile” (Bioorg Med Chem Lett, 2006).

The target in data set [1] is T1, Sodium- and chloride-dependent glycine transporter 1 (Homo sapiens, UniProt P48067).
T1 sequence (P48067 whole entry): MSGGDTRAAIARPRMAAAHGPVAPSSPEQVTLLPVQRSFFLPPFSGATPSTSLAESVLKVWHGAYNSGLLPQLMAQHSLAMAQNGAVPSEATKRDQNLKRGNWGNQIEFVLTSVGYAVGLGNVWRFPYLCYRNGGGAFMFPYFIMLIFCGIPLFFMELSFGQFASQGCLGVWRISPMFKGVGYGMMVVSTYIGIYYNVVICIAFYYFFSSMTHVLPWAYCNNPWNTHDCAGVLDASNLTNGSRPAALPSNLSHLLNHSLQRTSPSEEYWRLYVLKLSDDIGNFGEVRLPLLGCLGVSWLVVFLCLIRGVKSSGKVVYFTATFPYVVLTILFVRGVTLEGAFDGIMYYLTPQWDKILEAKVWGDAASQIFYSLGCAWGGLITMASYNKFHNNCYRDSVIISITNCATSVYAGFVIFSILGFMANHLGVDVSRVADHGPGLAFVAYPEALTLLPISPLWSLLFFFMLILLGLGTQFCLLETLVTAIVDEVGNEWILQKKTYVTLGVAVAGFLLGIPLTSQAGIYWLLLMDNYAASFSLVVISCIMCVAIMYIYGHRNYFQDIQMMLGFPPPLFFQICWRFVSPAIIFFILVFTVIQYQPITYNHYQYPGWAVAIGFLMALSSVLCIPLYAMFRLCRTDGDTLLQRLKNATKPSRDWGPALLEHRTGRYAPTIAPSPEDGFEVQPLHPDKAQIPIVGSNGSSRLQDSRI
Briefly: Displacement of [3H]glycine from human GlyT1 by radiometric assay. For orientation: In a radioligand displacement assay an active substance lowers the binding of a labelled ligand.

For data set [2], the target named is T2, Sodium- and chloride-dependent glycine transporter 2 (Homo sapiens, UniProt Q9Y345).
T2 sequence (Q9Y345 whole entry): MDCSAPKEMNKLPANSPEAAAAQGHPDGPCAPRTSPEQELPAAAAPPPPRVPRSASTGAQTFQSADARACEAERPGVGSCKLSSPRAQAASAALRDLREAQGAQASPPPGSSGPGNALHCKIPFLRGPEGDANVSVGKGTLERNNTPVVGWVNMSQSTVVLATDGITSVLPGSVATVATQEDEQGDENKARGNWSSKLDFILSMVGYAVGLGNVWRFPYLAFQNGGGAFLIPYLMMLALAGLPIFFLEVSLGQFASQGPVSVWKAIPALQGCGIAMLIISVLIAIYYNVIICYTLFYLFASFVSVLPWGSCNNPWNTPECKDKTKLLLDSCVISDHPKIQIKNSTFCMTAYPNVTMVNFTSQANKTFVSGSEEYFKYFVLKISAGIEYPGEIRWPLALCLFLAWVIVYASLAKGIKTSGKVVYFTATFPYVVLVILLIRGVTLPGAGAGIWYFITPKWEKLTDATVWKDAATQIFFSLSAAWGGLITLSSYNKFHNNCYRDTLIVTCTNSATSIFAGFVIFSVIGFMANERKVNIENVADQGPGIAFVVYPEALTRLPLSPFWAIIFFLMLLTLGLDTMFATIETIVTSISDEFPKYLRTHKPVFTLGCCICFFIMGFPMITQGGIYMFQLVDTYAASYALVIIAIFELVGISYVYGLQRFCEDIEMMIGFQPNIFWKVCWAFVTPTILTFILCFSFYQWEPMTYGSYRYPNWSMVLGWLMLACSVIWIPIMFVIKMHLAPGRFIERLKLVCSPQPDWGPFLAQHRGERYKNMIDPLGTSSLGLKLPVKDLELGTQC
Briefly: Displacement of [3H]glycine from human GlyT2 by radiometric assay.

Data set [3] in a line: Clearance in human microsomes. As to conditions: human liver microsomes. Type of data set: ADME, Microsome. For orientation: Liver microsomes are vesicles of endoplasmic reticulum, rich in cytochrome P450 enzymes.
Data set [4] in a line: Clearance in mouse microsomes. It counts as ADME, Liver, Microsome.
Data set [5] in a line: Maximum achievable bioavailability in mouse microsomes. Type of data set: ADME, Liver, microsome. The settings on record: read-out: Max Achievable Bioavailability.
A short description of data set [6]: Maximum achievable bioavailability in human microsomes. Type of data set: ADME, Microsome. The settings on record: human liver microsomes, read-out: Max Achievable Bioavailability.

By EC50 is commonly meant the midpoint of the concentration-response curve. Usually microsomal CLint stands for the rate of metabolic loss divided by the concentration. Higher therefore signals rapid turnover.

Molecules are shown by their SMILES. A value given as a limit tells only on which side of the number the result lay.

In data set [1], `CC(C)[C@]1(O)CCCC[C@H]1N1CCC2(CC1)C(=O)NCN2c1ccccc1` (mixture of isomers) had an EC50 above 3 µM.

Turning to `CC(C)(C)[C@]1(O)CCCC[C@H]1N1CCC2(CC1)C(=O)NCN2c1ccccc1` (racemic), in data set [1], it took 29 µM to reach a half-maximal effect (EC50).

In the case of `O=C1NCN(c2ccccc2)C12CCN([C@@H]1CCOC[C@@]1(O)c1ccccc1)CC2` (racemic), the concentration giving a half-maximal response (EC50) in data set [2] is above 100 µM; in data set [1], 0.09 µM.

`O=C1NCN(c2ccccc2)C12CCN([C@@H]1CCCC[C@@]1(O)Cc1ccccc1)CC2` (racemic) had a 50% effective concentration (EC50) in data set [1] of 4.4 µM.

`CCCN1CNC(=O)C12CCN([C@@H]1CCCC[C@@]1(O)c1ccccc1)CC2` (racemic): the intrinsic metabolic clearance (microsomal CLint) in data set [3] was 5 µL/min/mg; in data set [4] it was 7 µL/min/mg. The compound further registered an EC50 in data set [1] of 0.4 µM. The Fh was determined as 81% in data set [5] and 84% in data set [6].

Consider `O=C1NCN(c2ccccc2)C12CCN([C@@H]1CCCC[C@@]1(O)c1ccccc1)CC2` (racemic), for which the 50% effective concentration (EC50) is 72 µM in data set [2] and 0.044 µM in data set [1].

`O=C1NCN(c2ccccc2)C12CCN([C@@H]1CCCC[C@@]1(O)c1ccc(Cl)c(Cl)c1)CC2` (racemic): the values for the half-maximal effective concentration (EC50) in data set [2] and in data set [1] were 6 µM and 0.173 µM, respectively.

Consider `Cc1ccc([C@]2(O)CCCC[C@H]2N2CCC3(CC2)C(=O)NCN3c2ccccc2)cc1` (racemic), for which the results for the half-maximal effective concentration (EC50) in data set [2] and in data set [1] were 25 µM and 0.14 µM, respectively.

For `O=C1NCN(c2ccccc2)C12CCN([C@H]1CCCC[C@@]1(O)c1ccccc1)CC2` (racemic), the EC50 in data set [2] was 26 µM; in data set [1] it was 0.056 µM.

For `COc1ccc(N2CNC(=O)C23CCN([C@@H]2CCCC[C@@]2(O)c2ccc(Cl)cc2)CC3)cc1` (racemic), the concentration giving a half-maximal response (EC50) in data set [2] worked out at 25 µM; in data set [1] it was 0.099 µM.

For the compound `O=C1NCN(c2ccccc2)C12CCN([C@@H]1CCCC[C@@]1(O)c1cccnc1)CC2` (racemic), the concentration for a half-maximal effect (EC50) in data set [1] stood at 0.11 µM.

In data set [1], `C[C@]1(O)CCCC[C@H]1N1CCC2(CC1)C(=O)NCN2c1ccccc1` (racemic) displayed a 50% effective concentration (EC50) of 9 µM.

For `O=C1NCN(c2ccccc2)C12CCN([C@@H]1CCCC[C@@]1(O)c1cccc(Cl)c1)CC2` (racemic), the values for the EC50 in data set [2] and in data set [1] were 21 µM and 0.13 µM, respectively.

As to `O=C1NCN(c2ccc(Cl)cc2)C12CCN([C@@H]1CCCC[C@@]1(O)c1ccc(F)cc1)CC2` (racemic), the EC50 in data set [2] amounted to 2.5 µM; in data set [1] it was 0.015 µM.

`O=C1NCN(c2ccccc2)C12CCN([C@@H]1COCC[C@@]1(O)c1ccccc1)CC2` (racemic): the half-maximal effective concentration (EC50) in data set [2] worked out at 35 µM; in data set [1] it was 0.058 µM.

For the compound `O=C1NCN(c2ccccc2)C12CCN([C@@H]1CCCC[C@@]1(O)c1ccccn1)CC2` (racemic), the EC50 in data set [2] is above 100 µM; in data set [1], 0.13 µM.

`COc1ccc([C@]2(O)CCCC[C@H]2N2CCC3(CC2)C(=O)NCN3c2ccccc2)cc1` (racemic): the results for the concentration giving a half-maximal response (EC50) in data set [2] and in data set [1] were 67 µM and 0.261 µM, respectively.

With `CCCN1CNC(=O)C12CCN([C@H]1CCCC[C@H]1c1ccccc1)CC2` (racemic), the figures for the microsomal CLint in data set [3] and in data set [4] were 25 µL/min/mg and 10 µL/min/mg, respectively.

In the case of `O=C1NCN(c2ccc(F)cc2)C12CCN([C@@H]1CCCC[C@@]1(O)c1ccc(Cl)cc1)CC2` (racemic), the 50% effective concentration (EC50) in data set [2] came out at 19 µM; in data set [1], 0.024 µM.

`O=C1NCN(c2ccccc2)C12CCN([C@@H]1CCCC[C@@]1(O)c1ccncc1)CC2` (racemic): the values for the half-maximal effective concentration (EC50) in data set [2] and in data set [1] were above 100 µM and 0.062 µM, respectively.

`O=C1NCN(c2ccccc2)C12CCN([C@@H]1CCCC[C@@]1(O)c1ccc(Cl)cc1)CC2` (racemic): the values for the EC50 in data set [2] and in data set [1] were 16 µM and 0.08 µM, respectively.

For the compound `COc1cccc([C@]2(O)CCCC[C@H]2N2CCC3(CC2)C(=O)NCN3c2ccccc2)c1` (racemic), the EC50 was 41 µM in data set [2] and 0.13 µM in data set [1].

Take `Cc1ccccc1[C@]1(O)CCCC[C@H]1N1CCC2(CC1)C(=O)NCN2c1ccccc1` (racemic): the EC50 in data set [2] came to 70 µM; in data set [1], 0.05 µM.

In turn, `O=C1NCN(c2ccccc2)C12CCN([C@@H]1CCCC[C@@]1(O)C1CCCCC1)CC2` (racemic) gave an EC50 in data set [1] of 17 µM.

As to `O=C1NCN(c2ccccc2)C12CCN([C@H]1CCCC[C@H]1c1ccccc1)CC2` (racemic), the intrinsic clearance (microsomal CLint) in data set [3] turned out to be 68 µL/min/mg.

For `O=C1NCN(c2ccc(F)cc2)C12CCN([C@@H]1CCCC[C@@]1(O)c1ccc(F)cc1)CC2` (racemic), the 50% effective concentration (EC50) worked out at 36 µM in data set [2] and 0.024 µM in data set [1]. Further, the values for the intrinsic clearance (microsomal CLint) in data set [3] and in data set [4] were 92 µL/min/mg and 102 µL/min/mg, respectively.

Turning to `O=C1NCN(c2ccccc2)C12CCN([C@@H]1CCCC[C@@]1(O)c1ccc(F)cc1)CC2` (relative stereo), the EC50 in data set [2] amounted to 57 µM; in data set [1], 0.04 µM.
